Legend:
DENV2 NGC [1] = experiment: time-of-addition experiments, BHK21 cells, viral plaque assay; type: cell-based, dengue virus; settings: 15 μM, BHK21, MOI 1, yield at 24 hpi
DENV2 NGC [2] = experiment: low MOI multiple replication cycle infection experiment; type: cell-based, dengue virus; settings: MOI 0.01, treatment delayed until 24 hpi; GNF-2 15 μM, 8b 5 μM; titers at 48, 72 hpi
[3] = biological target: recombinant, soluble DENV2 E protein (sE), prefusion (Dengue virus type 2, UniProt P14340); experiment: Alphascreen assay, GNF2-biotin and prefusion sE; settings: increasing concentrations, 20 nM to 10 μM
DENV2 NGC [4] = settings: dose-response, inhibitor present during entire single round, MOI 1, 24 hpi

## NC(=O)c1cccc(-c2cc(Nc3ccc(OC(F)(F)F)cc3)ncn2)c1 [GNF-2]
DENV2 NGC [1]
  antiviral effect when added post-infection (POST, 0-5 hours): inhibit DENV2
  antiviral effect when pre-incubated with viral inoculum (PRE virus): additional antiviral activity
DENV2 NGC [2]
  inhibition of DENV2 over multiple replication cycles: inhibit DENV2
[3]
  competition with GNF2-biotin for prefusion sE (Alphascreen signal): decrease the Alphascreen signal
DENV2 NGC [4]
  antiviral activity in single-cycle virus yield reduction assay: more antiviral activity than imatinib
